From patent publication US8530490B2, “Uracil compound or salt thereof having human deoxyuridine triphosphatase inhibitory activity” (Taiho Pharmaceutical Co., Ltd., priority 2008, dated 2013) come the findings set out here.

The structures appear in SMILES notation.

The target in this experiment is human dUTPase (Homo sapiens (Human), UniProt P33316). Description: Human dUTPase inhibitory effect: production of [5-3H]dUMP from [5-3H]dUTP, measured by HPLC with flow scintillation. The experiment is classed as biochemical. The conditions noted are these: [5-3H]dUMP production from [5-3H]dUTP, 37° C., 15 minutes. As to the method:
The inhibitory activity of the compound of the present invention against human dUTPase was determined by measuring the production of [5-^3H]deoxyuridine monophosphate (hereinafter, referred to as [5-^3H]dUMP) from [5-^3H]deoxyuridine triphosphate (hereinafter, referred to as [5-^3H]dUTP) according to a method shown below.
Specifically, 0.2 mL in total of a solution containing 0.02 mL of 1 μM dUTP (including 588 Bq/mL [5-3H]dUTP), 0.05 mL of a 0.2 M Tris buffer solution (pH 7.4), 0.05 mL of 16 mM magnesium chloride, 0.02 mL of 20 mM 2-mercaptoethanol, 0.02 mL of a 1% aqueous solution of fetal bovine serum-derived albumin, 0.02 mL of varying concentrations of test compound solutions or pure water as a control, and 0.02 mL of a solution of human dUTPase (expressed using E. coli and purified) was reacted at 37° C. for 15 minutes. Immediately after the reaction, the solution was heated at 100° C. for 1 minute to terminate the reaction, followed by centrifugation at 15000 rpm for 2 minutes. An aliquot (150 μL) of the supernatant thus obtained by centrifugation was analyzed using an Atlantis dC18 column (manufactured by Waters Corp., 4.6×250 mm) and a high-performance liquid chromatograph (manufactured by Shimadzu Corp., Prominence). Elution was performed at a flow rate of 0.8 mL/min for 30 minutes by a concentration gradient from a 4:6 mixed solution of a mobile phase A (10 mM potassium dihydrogen phosphate (pH 6.7), 10 mM tetrabutylammonium, and 0.25% methanol) and a mobile phase B (50 mM potassium dihydrogen phosphate (pH 6.7), 5.6 mM tetrabutylammonium, and 30% methanol) to the mobile phase B. The eluate was mixed with a scintillator (manufactured by PerkinElmer Co., Ltd., Ultima-Flo AP) at a 1:2 ratio, and the radioactivity of the produced [5-^3H]dUMP (RT 10.2 min) was measured using Radiomatic Flow Scintillation Analyzer (manufactured by PerkinElmer Co., Ltd., 525TR).
The inhibitory activity of the test compound was determined according to the formula shown below.

Chain of human dUTPase (P33316 94-252): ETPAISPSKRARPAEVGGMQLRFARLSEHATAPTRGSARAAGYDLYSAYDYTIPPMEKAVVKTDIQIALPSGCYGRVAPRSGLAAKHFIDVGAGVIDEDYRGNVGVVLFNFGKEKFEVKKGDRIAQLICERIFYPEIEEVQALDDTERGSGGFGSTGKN

As a reminder, the IC50 is the concentration needed to halve the response being measured. High values mean a need for much substance, low ones inhibition by little substance. For `O=c1ccn(COCCCS(=O)(=O)NCc2cccc(OC3CCCC3)c2)c(=O)[nH]1` [Example 21, N-(3-(cyclopentyloxy)benzyl)-3-((2,4-dioxo-3,4-dihydropyrimidin-1(2H)-yl)methoxy)propane-1-sulfonamide], the IC50 amounted to 270 nM.
Next, `CC[C@@H](NS(=O)(=O)CCCOCn1ccc(=O)[nH]c1=O)c1ccc(F)c(OCC2CC2)c1` [Example 22, (R)—N-(1-(3-(cyclopropylmethoxy)-4-fluorophenyl)propyl)-3-((2,4-dioxo-3,4-dihydropyrimidin-1(2H)-yl)methoxy)propane-1-sulfonamide]: 30 nM; `C[C@@H](NS(=O)(=O)CCCOCn1ccc(=O)[nH]c1=O)c1cccc(OCC2CC2)c1` [Example 23, (R)—N-(1-(3-(cyclopropylmethoxy)phenyl)ethyl)-3-((2,4-dioxo-3,4-dihydropyrimidin-1(2H)-yl)methoxy)propane-1-sulfonamide]: 50 nM; `C[C@@H](NS(=O)(=O)CCCOCn1ccc(=O)[nH]c1=O)c1ccc(F)c(OC2CCCC2)c1` [Example 24, (R)—N-(1-(3-(cyclopentyloxy)-4-fluorophenyl)ethyl)-3-((2,4-dioxo-3,4-dihydropyrimidin-1(2H)-yl)methoxy)propane-1-sulfonamide]: 40 nM.
Next, `CC(C)C(NS(=O)(=O)CCCOCn1ccc(=O)[nH]c1=O)c1ccc(F)c(OCC2CC2)c1` (centres unmarked) [Example 25, N-(1-(3-(cyclopropylmethoxy)-4-fluorophenyl)-2-methylpropyl)-3-((2,4-dioxo-3,4-dihydropyrimidin-1(2H)-yl)methoxy)propane-1-sulfonamide]: 100 nM; `CC(C)(NS(=O)(=O)CCCOCn1ccc(=O)[nH]c1=O)c1cccc(OCC2CC2)c1` [Example 26, N-(2-(3-(cyclopropylmethoxy)phenyl)propan-2-yl)-3-((2,4-dioxo-3,4-dihydropyrimidin-1(2H)-yl)methoxy)propane-1-sulfonamide]: 520 nM; `CC[C@@H](NS(=O)(=O)CCCOCn1ccc(=O)[nH]c1=O)c1cccc(OCC2CC2)c1` [Example 27, (R)—N-(1-(3-(cyclopropylmethoxy)phenyl)propyl)-3-((2,4-dioxo-3,4-dihydropyrimidin-1(2H)-yl)methoxy)propane-1-sulfonamide]: 40 nM.
With `CC(C)(NS(=O)(=O)CCCOCn1ccc(=O)[nH]c1=O)c1ccc(F)c(OCC2CC2)c1` [Example 28, N-(2-(3-(cyclopropylmethoxy)-4-fluorophenyl)propan-2-yl)-3-((2,4-dioxo-3,4-dihydropyrimidin-1(2H)-yl)methoxy)propane-1-sulfonamide] the figure was 360 nM; with `O=c1ccn(COCCCS(=O)(=O)NC(c2ccccc2)c2cccc(OCC3CCC3)c2)c(=O)[nH]1` (centres unmarked) [Example 29, N-((3-(cyclobutylmethoxy)phenyl)(phenyl)methyl)-3-((2,4-dioxo-3,4-dihydropyrimidin-1(2H)-yl)methoxy)propane-1-sulfonamide], 890 nM; with `O=c1ccn(COCCCS(=O)(=O)NC(c2cccc(OCC3CC3)c2)C2CC2)c(=O)[nH]1` (centres unmarked) [Example 30, N-(cyclopropyl(3-(cyclopropylmethoxy)phenyl)methyl)-3-((2,4-dioxo-3,4-dihydropyrimidin-1(2H)-yl)methoxy)propane-1-sulfonamide], 360 nM.
For `CC(C)C(NS(=O)(=O)CCCOCn1ccc(=O)[nH]c1=O)c1cccc(OCC2CC2)c1` (centres unmarked) [Example 31, N-(1-(3-(cyclopropylmethoxy)phenyl)-2-methylpropyl)-3-((2,4-dioxo-3,4-dihydropyrimidin-1(2H)-yl)methoxy)propane-1-sulfonamide], the IC50 was found to be 330 nM.
Next, `CC(NS(=O)(=O)CCCOCn1ccc(=O)[nH]c1=O)c1cccc(OC2CCCC2)c1` (centres unmarked) [Example 32, N-(1-(3-(cyclopentyloxy)phenyl)ethyl)-3-((2,4-dioxo-3,4-dihydropyrimidin-1(2H)-yl)methoxy)propane-1-sulfonamide]: 140 nM.
As to `O=c1ccn(COCCCS(=O)(=O)NCc2cccc(OC3CC3)c2)c(=O)[nH]1` [Example 33, N-(3-cyclopropoxybenzyl)-3-((2,4-dioxo-3,4-dihydropyrimidin-1(2H)-yl)methoxy)propane-1-sulfonamide], half-maximal inhibition (IC50) was put at 1130 nM.
Molecule `CCC(NS(=O)(=O)CCCOCn1ccc(=O)[nH]c1=O)c1ccc(F)c(OCC2CC2)c1` (centres unmarked) [Example 34, N-(1-(3-(cyclopropylmethoxy)-4-fluorophenyl)propyl)-3-((2,4-dioxo-3,4-dihydropyrimidin-1(2H)-yl)methoxy)propane-1-sulfonamide] gave an IC50 of 30 nM.
With `CC(C)[C@H](NS(=O)(=O)CCCOCn1ccc(=O)[nH]c1=O)c1ccc(F)c(OCC2CC2)c1` [Example 35, (S)—N-(1-(3-(cyclopropylmethoxy)-4-fluorophenyl)-2-methylpropyl)-3-((2,4-dioxo-3,4-dihydropyrimidin-1(2H)-yl)methoxy)propane-1-sulfonamide] the figure was 1550 nM; with `CC(NS(=O)(=O)CCCOCn1ccc(=O)[nH]c1=O)c1ccc(F)c(OCC2CC2)c1` (centres unmarked) [Example 36, N-(1-(3-(cyclopropylmethoxy)-4-fluorophenyl)ethyl)-3-((2,4-dioxo-3,4-dihydropyrimidin-1(2H)-yl)methoxy)propane-1-sulfonamide], 150 nM.
Next, `O=c1ccn(COCCCS(=O)(=O)N[C@H](c2ccc(F)cc2)c2ccc(F)c(OCC3CC3)c2)c(=O)[nH]1` [Example 37, (R)—N-((3-(cyclopropylmethoxy)-4-fluorophenyl)(4-fluorophenyl)methyl)-3-((2,4-dioxo-3,4-dihydropyrimidin-1(2H)-yl)methoxy)propane-1-sulfonamide]: 100 nM; `O=c1ccn(COCCCS(=O)(=O)N[C@@H](c2ccc(F)c(OCC3CC3)c2)c2cccs2)c(=O)[nH]1` [Example 38, (S)—N-((3-(cyclopropylmethoxy)-4-fluorophenyl)(thiophen-2-yl)methyl)-3-((2,4-dioxo-3,4-dihydropyrimidin-1(2H)-yl)methoxy)propane-1-sulfonamide]: 30 nM; `O=c1ccn(COCCCS(=O)(=O)NC2(c3cccc(OCC4CC4)c3)CCCC2)c(=O)[nH]1` [Example 39, N-(1-(3-(cyclopropylmethoxy)phenyl)cyclopentyl)-3-((2,4-dioxo-3,4-dihydropyrimidin-1(2H)-yl)methoxy)propane-1-sulfonamide]: 280 nM.
With `O=c1ccn(COCCCS(=O)(=O)N[C@@H](c2ccc(F)c(OCC3CC3)c2)C2CC2)c(=O)[nH]1` [Example 40, (R)—N-(cyclopropyl (3-(cyclopropylmethoxy)-4-fluorophenyl)methyl)-3-((2,4-dioxo-3,4-dihydropyrimidin-1(2H)-yl)methoxy)propane-1-sulfonamide] the figure was 100 nM; with `CC[C@@H](NS(=O)(=O)CCCOCn1ccc(=O)[nH]c1=O)c1cccc(OC2CCCC2)c1` [Example 41, (R)—N-(1-(3-(cyclopentyloxy)phenyl)propyl)-3-((2,4-dioxo-3,4-dihydropyrimidin-1(2H)-yl)methoxy)propane-1-sulfonamide], 40 nM.
In the case of `O=c1ccn(COCCCS(=O)(=O)N[C@@H](c2cccc(OC3CCCC3)c2)C2CC2)c(=O)[nH]1` [Example 42, (R)—N-((3-(cyclopentyloxy)phenyl)(cyclopropyl)methyl)-3-((2,4-dioxo-3,4-dihydropyrimidin-1(2H)-yl)methoxy)propane-1-sulfonamide], the IC50 was 330 nM.
With `CC[C@@H](NS(=O)(=O)CCCOCn1ccc(=O)[nH]c1=O)c1cccc(OC2CC2)c1` [Example 43, (R)—N-(1-(3-cyclopropoxyphenyl)propyl)-3-((2,4-dioxo-3,4-dihydropyrimidin-1(2H)-yl)methoxy)propane-1-sulfonamide] the figure was 90 nM; with `O=c1ccn(COCCCS(=O)(=O)NCc2ccc(F)c(OC3CCCC3)c2)c(=O)[nH]1` [Example 44, N-(3-(cyclopentyloxy)-4-fluorobenzyl)-3-((2,4-dioxo-3,4-dihydropyrimidin-1(2H)-yl)methoxy)propane-1-sulfonamide], 160 nM; with `O=c1ccn(COCCCS(=O)(=O)NCc2cccc(OC3CCCCC3)c2)c(=O)[nH]1` [Example 45, N-(3-(cyclohexyloxy)benzyl)-3-((2,4-dioxo-3,4-dihydropyrimidin-1(2H)-yl)methoxy)propane-1-sulfonamide], 2010 nM.
Next, `O=c1ccn(COCCCS(=O)(=O)NCc2cccc(OC3CCOCC3)c2)c(=O)[nH]1` [Example 46, 3-((2,4-dioxo-3,4-dihydropyrimidin-1(2H)-yl)methoxy)-N-(3-(tetrahydro-2H-pyran-4-yloxy)benzyl)propane-1-sulfonamide]: 2350 nM.
